The compounds below were run against T1, APOL1 G2 (Homo sapiens, UniProt O14791, DEL388-389) (assay: APOL1-mediated calcium transport (calcium influx) assay, HEK T-REx/GCaMP6f/APOL1 G2 K6.3 cells, FLIPR TETRA). Settings: prevention of calcium influx; geometric mean of at least 2 assay runs; † = average of a technical replicate from a single assay run.
T1 construct: expressed in transfected cells; host or cells: HEK293 T-REx clonal line stably expressing GCaMP6f (HEK T-REx/GCaMP6f/APOL1 G2 K6.3), doxycycline induced
T1 sequence (O14791 with tags, fused parts or gaps DEL388-389): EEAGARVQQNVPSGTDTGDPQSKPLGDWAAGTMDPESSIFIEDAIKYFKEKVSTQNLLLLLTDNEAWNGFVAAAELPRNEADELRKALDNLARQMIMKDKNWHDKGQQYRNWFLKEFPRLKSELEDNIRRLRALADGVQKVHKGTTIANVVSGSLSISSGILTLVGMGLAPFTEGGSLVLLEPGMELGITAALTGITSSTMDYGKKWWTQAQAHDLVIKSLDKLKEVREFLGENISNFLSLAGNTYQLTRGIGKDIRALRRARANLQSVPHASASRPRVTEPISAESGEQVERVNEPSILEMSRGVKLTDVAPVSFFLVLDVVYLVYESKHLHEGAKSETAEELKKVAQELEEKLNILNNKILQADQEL
Format: cell-based
In short: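 A HEK293 T-REx clone stably expressing GCaMP6f had APOL1 G2 induced with doxycycline (20 ng/mL solution added) for 6 h. Cells were then washed into Ca2+-free Tyrode's buffer (pH 7.4) and preincubated with compounds (duplicate 8-point) for 10 min at room temperature. Ca2+ injection to 5 mM final produced FLIPR GCaMP fluorescence, giving AC50 for influx inhibition (geometric mean, ≥2 runs).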

`CC(O)c1ncc(OCCN2CCC3(CC2)C(=O)Nc2ccc(Cl)cc23)cn1` (single isomer, unassigned) [Compound 286, 5-chloro-1′-[2-({2-[(1R) or (1S)-1-hydroxyethyl]pyrimidin-5-yl}oxy)ethyl]-1,2-dihydrospiro[indole-3,4′-piperidin]-2-one] and `CC(O)c1ncc(OCCN2CCC3(CC2)C(=O)Nc2ccc(Cl)cc23)cc1C(F)(F)F` (single isomer, unassigned) [Compound 291, 5-chloro-1′-[2-({6-[(1R) or (1S)-1-hydroxyethyl]-5-(trifluoromethyl)pyridin-3-yl}oxy)ethyl]-1,2-dihydrospiro[indole-3,4′-piperidin]-2-one] are within 1.5-fold of each other in AC50: 917 nM for the first, 1190 nM for the second.

First: CC(O)c1ncc(OCCN2CCC3(CC2)C(=O)Nc2ccc(C(F)F)cc23)cc1C(F)(F)F (single isomer, unassigned) [Compound 287, 5-(difluoromethyl)-1′-[2-({6-[(1S) or (1R)-1-hydroxyethyl]-5-(trifluoromethyl)pyridin-3-yl}oxy)ethyl]-1,2-dihydrospiro[indole-3,4′-piperidin]-2-one]
Second: CC(O)c1ncc(OCCN2CCC3(CC2)C(=O)Nc2ccc(Cl)cc23)cc1C(F)(F)F (single isomer, unassigned) [Compound 292, 5-chloro-1′-[2-({6-[(1S) or (1R)-1-hydroxyethyl]-5-(trifluoromethyl)pyridin-3-yl}oxy)ethyl]-1,2-dihydrospiro[indole-3,4′-piperidin]-2-one]
The AC50 of the first is 4.3-fold lower: 303 nM for the first, 1300 nM for the second.

First: CC(O)c1ncc(OCCN2CCC3(CC2)C(=O)Nc2ccc(C(F)F)cc23)cc1C(F)(F)F (single isomer, unassigned) [Compound 288, 5-(difluoromethyl)-1′-[2-({6-[(1R) or (1S)-1-hydroxyethyl]-5-(trifluoromethyl)pyridin-3-yl}oxy)ethyl]-1,2-dihydrospiro[indole-3,4′-piperidin]-2-one]
Second: CS(=O)(=O)c1ccc(OCCN2CCC3(CC2)C(=O)Nc2ccc(Cl)cc23)cc1C(F)F [Compound 197, 5-chloro-1′-{2-[3-(difluoromethyl)-4-methanesulfonylphenoxy]ethyl}-1,2-dihydrospiro[indole-3,4′-piperidin]-2-one]
The AC50 of the first is 2.4-fold lower: 369 nM for the first, 889 nM for the second.

`CC[C@]1(O)C[C@H](N2C(=O)CCc3cc(OCCN4CCC5(CC4)C(=O)Nc4ccc(Cl)cc45)cnc32)C1` (single isomer, unassigned) [Compound 290, 5-chloro-1′-[2-({7-oxo-8-[(trans)-3-ethyl-3-hydroxycyclobutyl]-5,6,7,8-tetrahydro-1,8-naphthyridin-3-yl}oxy)ethyl]-1,2-dihydrospiro[indole-3,4′-piperidin]-2-one] and `C[C@]1(O)C[C@H](N2C(=O)CCc3cc(OCCN4CCC5(CC4)C(=O)Nc4ccc(Cl)cc45)cnc32)C1` (single isomer, unassigned) [Compound 307, 5-chloro-1′-[2-({7-oxo-8-[(trans)-3-hydroxy-3-methylcyclobutyl]-5,6,7,8-tetrahydro-1,8-naphthyridin-3-yl}oxy)ethyl]-1,2-dihydrospiro[indole-3,4′-piperidin]-2-one] are within 1.5-fold of each other in AC50: 253 nM for the first, 320 nM for the second.

Compared with `O=C1CCc2cc(OCCN3CCC4(CC3)C(=O)Nc3ccc(Cl)cc34)cnc2N1[C@H]1C[C@@](O)(C2CC2)C1` (single isomer, unassigned) [Compound 297, 5-chloro-1′-[2-({7-oxo-8-[(trans)-3-cyclopropyl-3-hydroxycyclobutyl]-5,6,7,8-tetrahydro-1,8-naphthyridin-3-yl}oxy)ethyl]-1,2-dihydrospiro[indole-3,4′-piperidin]-2-one], `O=C1CCc2cc(OCCN3CCC4(CC3)C(=O)Nc3ccc(Cl)cc34)cnc2N1CCO` [Compound 192, 5-chloro-1′-(2-{[8-(2-hydroxyethyl)-7-oxo-5,6,7,8-tetrahydro-1,8-naphthyridin-3-yl]oxy}ethyl)-1,2-dihydrospiro[indole-3,4′-piperidin]-2-one] is 3.2-fold lower in AC50: 937 nM for the first, 291 nM for the second.

`CS(=O)(=O)c1ccc(OCCN2CCC3(CC2)C(=O)N(CCO)c2ccc(Cl)cc23)cc1` [Compound 18, 5-chloro-1-(2-hydroxyethyl)-1′-[2-(4-methanesulfonylphenoxy)ethyl]-1,2-dihydrospiro[indole-3,4′-piperidin]-2-one] and `CS(=O)(=O)c1ccc(OCCN2CCC3(CC2)C(=O)N(CCO)c2ccc(Br)cc23)cc1` [Compound 24, 5-bromo-1-(2-hydroxyethyl)-1′-[2-(4-methanesulfonylphenoxy)ethyl]-1,2-dihydrospiro[indole-3,4′-piperidin]-2-one] are within 1.5-fold of each other in AC50: 240 nM for the first, 200 nM for the second.

Compared with `COCCN1C(=O)C2(CCN(CCOc3ccc(S(C)(=O)=O)cc3)CC2)c2cc(Cl)ccc21` [Compound 20, 5-chloro-1′-[2-(4-methanesulfonylphenoxy)ethyl]-1-(2-methoxyethyl)-1,2-dihydrospiro[indole-3,4′-piperidin]-2-one], `COCCN1C(=O)C2(CCN(CCOc3ccc(S(C)(=O)=O)cc3)CC2)c2cc(C#N)ccc21` [Compound 25, 1′-[2-(4-methanesulfonylphenoxy)ethyl]-1-(2-methoxyethyl)-2-oxo-1,2-dihydrospiro[indole-3,4′-piperidine]-5-carbonitrile] is 1.9-fold higher in AC50: 348 nM for the first, 651 nM for the second.

`CN1C(=O)C2(CCN(CCOc3ccc(S(=O)(=O)CCCS(C)(=O)=O)cc3)CC2)c2cc(Cl)ccc21` [Compound 23, 5-chloro-1′-{2-[4-(3-methanesulfonylpropanesulfonyl)phenoxy]ethyl}-1-methyl-1,2-dihydrospiro[indole-3,4′-piperidin]-2-one] and `O=C1Nc2ccc(Cl)cc2C12CCN(CCOc1ccc(S(=O)(=O)CCO)cc1)CC2` [Compound 198, 5-chloro-1′-{2-[4-(2-hydroxyethanesulfonyl)phenoxy)ethyl}-1,2-dihydrospiro[indole-3,4′-piperidin]-2-one] are within 1.5-fold of each other in AC50: 514 nM for the first, 631 nM for the second.

First: CS(=O)(=O)c1ccc(OCCN2CCCC3(CC2)C(=O)Nc2ccccc23)cc1 (stereo not drawn) [Compound 26, 1-(2-(4-(methylsulfonyl)phenoxy)ethyl)spiro[azepane-4,3′-indolin]-2′-one]
Second: CS(=O)(=O)Nc1ccc(OCCN2CCC3(CC2)C(=O)Nc2ccc(Cl)cc23)cc1 [Compound 214, N-[4-(2-{5-chloro-2-oxo-1,2-dihydrospiro[indole-3,4′-piperidin]-1′-yl}ethoxy)phenyl]methanesulfonamide]
The AC50 of the first is 2.7-fold higher: 943 nM for the first, 355 nM for the second.

Compared with `CN1C(=O)CCc2cc(OCCN3CCC4(CC3)C(=O)Nc3ccc(Cl)cc34)ccc21` [Compound 27, 5-chloro-1′-[2-[(1-methyl-2-oxo-3,4-dihydroquinolin-6-yl)oxy]ethyl]spiro[indoline-3,4′-piperidine]-2-one], `O=C1CCc2cc(OCCN3CCC4(CC3)C(=O)Nc3ccc(Cl)cc34)ccc2N1[C@H]1C[C@H](O)C1` [Compound 224, 5-chloro-1′-[2-({2-oxo-1-[(trans)-3-hydroxycyclobutyl]-1,2,3,4-tetrahydroquinolin-6-yl}oxy)ethyl]-1,2-dihydrospiro[indole-3,4′-piperidin]-2-one] is 1.6-fold higher in AC50: 510 nM for the first, 830 nM for the second.

`CC(=O)N(C)CCS(=O)(=O)c1ccc(OCCN2CCC3(CC2)C(=O)Nc2ccc(Cl)cc23)cc1` [Compound 193, N-{2-[4-(2-{5-chloro-2-oxo-1,2-dihydrosiro[indole-3,4′-piperidin]-1′-yl}ethoxy)benzenesulfonyl]ethyl}-N-methylacetamide] and `O=C1Nc2ccc(Cl)cc2C12CCN(CCOc1ccc(S(=O)(=O)C3(CO)CC3)cc1)CC2` [Compound 225, 5-chloro-1′-[2-(4-{[1-(hydroxymethyl)cyclopropyl]sulfonyl}phenoxy)ethyl]-1,2-dihydrospiro[indole-3,4′-piperidin]-2-one] are within 1.5-fold of each other in AC50: 1270 nM for the first, 847 nM for the second.

Compared with `CS(=O)(=O)C1(c2ccc(OCCN3CCC4(CC3)C(=O)Nc3ccc(Cl)cc34)cc2)COC1` [Compound 195, 5-chloro-1′-{2-[4-(3-methanesulfonyloxetan-3-yl)phenoxy]ethyl}-1,2-dihydrospiro[indole-3,4′-piperidin]-2-one], `O=C1Nc2ccc(Cl)cc2C12CCN(CCOc1ccc(S(=O)(=O)[C@H]3C[C@H](O)C3)cc1)CC2` [Compound 215, 5-chloro-1′-[2-(4-{[(trans)-3-hydroxycyclobutyl]sulfonyl}phenoxy)ethyl]-1,2-dihydrospiro[indole-3,4′-piperidin]-2-one] is 1.9-fold higher in AC50: 604 nM for the first, 1130 nM for the second.

Compared with `O=C1Nc2ccc(Cl)cc2C12CCN(CCOc1ccc3c(c1)CCS3(=O)=O)CC2` [Compound 196, 5-(2-{5-chloro-2-oxo-1,2-dihydrospiro[indole-3,4′-piperidin]-1′-yl}ethoxy)-2,3-dihydro-1λ^6-benzothiophene-1,1-dione], `CS(=O)(=O)c1ccc(OCCN2CCC3(CC2)C(=O)Nc2ccc(Cl)cc23)cc1C(O)CO` (stereo not drawn) [Compound 216, 5-chloro-1′-{2-[3-(1,2-dihydroxyethyl)-4-methanesulfonylphenoxy]ethyl}-1,2-dihydrospiro[indole-3,4′-piperidin]-2-one] is 4.5-fold higher in AC50: 696 nM for the first, 3140 nM for the second.

`CNC(=O)C1(S(=O)(=O)c2ccc(OCCN3CCC4(CC3)C(=O)Nc3ccc(Cl)cc34)cc2)CC1` [Compound 226, 1-[4-(2-{5-chloro-2-oxo-1,2-dihydrospiro[indole-3,4′-piperidin]-1′-yl}ethoxy)benzenesulfonyl]-N-methylcyclopropane-1-carboxamide] gave an AC50 of 1080 nM.

Source: patent US12344610B2, “APOL1 inhibitors and methods of use” (Maze Therapeutics, Inc., priority 2022, dated 2025)
